In one data set the test system is acute sickle-cell crises. The following applies: stated by The University of Maryland; cited from earlier work.
Data set [1] deals with endogenous ferritin-H gene expression in NT-2 (NTERA-2) stem cells. Kind of data set: Western blot for ferritin-H in NT-2 cells. The format is cell-based, human. As to conditions: Western blot after 8 days in the presence of compound vs DMSO-control, FIG. 21. Here is the method: Cell lines. Human NTERA-2 (NT-2) embryonal carcinoma stem cells (ATCC # CRL-1973) were cultured in DMEM medium with 10% FBS and antibiotics.
Western blots and quantification. Cell lysates (i.e., extracts of human NT-2 cells) were boiled for 3-5 minutes in SDS buffer, layered onto polyacrylamide gels and were run with SDS electrophoresis buffer at 90 volts for 30 minutes. Electrophoresed samples were then placed in 3% BSA buffer and transferred at 80 volts for 2 hours to blotting membranes. A blocking reaction was performed over night with blocking buffer from ECL advance kit (GE Healthcare Bio-Sciences, NJ), followed by incubation for 4 hours in BSA buffer with fluorescent secondary antibody (1:10000) and primary anti ferritin-H (anti-FtH) polyclonal antiserum (1:1000). Ferritin-H detection was achieved using the LI-COR apparatus to visualize the fuorescent bands and Odyssey software to quantify the stained bands of ferritin-H. Isolation and culture of human mononuclear cells and maturation of erythroid precursor cells are diagrammed in FIG. 22. Whole blood was obtained from pediatric sickle cell patients at the time of scheduled transfusion therapy under an approved IRB protocol. […]

Data set [2] has as its system erythroid precursor cells from pediatric sickle cell disease patients. Kind of data set: HbS-to-HbF switching in two-phase culture, HPLC of hemoglobins and immuno-HbF fluorescence. It is filed as cell-based, human. The following applies: FIG. 23.
The subject of data set [3] is partially purified ferritin-protein from K562 nuclei. As to the kind of experiment: Competition gel-shift assay with labeled wt −164/−128 oligonucleotide. The format is binding, human. The following applies: for excess of unlabeled oligonucleotide needed for significant competition with labeled wt sequence: heated K562 nuclear extract protein, FIG. 4B/4C. Here is the method:
Preparation of nuclear extracts. Each nuclear extract preparation was made from two liters of K562 cells (1×10^6 cells/ml) using the procedure of Dignam, Lebovitz, and Roeder (Dignam, J. D., Lebovitz, R. M. & Roeder, R. G. (1983) Nucleic Acids Res 11, 1475-89). Protein content of the extracts ranged from 3 to 6 mg/ml. Extracts enriched 80-90% in ferritin-like protein(s) were prepared by treating the crude extracts with proteinase K and/or heat at 75° C. (Atkinson, B. G., Dean, R. L., Tomlinson, J. & Blaker, T. W. (1989) Biochem Cell Biol 67, 52-7).
Gel mobility shift assays. Gel retardation assays (i.e., gel shifts) were used to determine DNA binding of the extract proteins to the Rsa I (95 bp) fragment and synthetic oligonucleotides (Berg et al., (1989) Nucleic Acids Res 17, 8833-52; Fried & Crothers (1981) Nucleic Acids Res 9, 6505-25). Each reaction contained 0.5-2 ng of DNA, 1.0-5.0 ug of extract protein, 1.0-5.0 ug of poly dI:poly dC, 100 mM KCl, and binding buffer (Berg et al., (1989) Nucleic Acids Res 17, 8833-52). Unlabeled competitor oligonucleotides ranged from 15- to 2000-fold molar excess and were included in the reaction mixture with the probe before adding protein. Gels used for retardation assays were 4%, 5%, or 6% acrylamide and the running buffer was low ionic strength TAE (Berg et al., (1989) Nucleic Acids Res 17, 8833-52).
Definition of the binding site with competition gel shifts. To further localize the binding of ferritin, the 37 bp oligonucleotide was mutated in different places, replacing six nucleotides at a time with all A's, all C's, or all G's, with complementary nucleotide replacements in the opposing strand (FIG. 4A). A competition gel shift assay was done with the partially purified protein from heated K562 nuclear extract, in which each of the unlabeled mutant oligos as well as the native sequence was competed against the 32-P-labeled native sequence for binding. All mutants competed for binding as well as the native sequence except those mutated in the −153/−148 region, i.e., mutated in the sequence CAGTGC [SEQ ID NO: 6] (e.g., FIG. 4D). […]

Data set [4] deals with distal promoter of the human β-globin gene (−222/−128). Kind of data set: Gel mobility shift assay with distal promoter restriction fragment. As to conditions: gel retardation assay, FIG. 2a left side. The format is binding. The source says:
Proteins and antibodies. Ferritins from human liver (enriched in L chains) and from human heart (enriched in H chains), human transferrin (iron saturated) and apotransferrin, polyclonal (rabbit) antiserum to human spleen ferritin and nonimmune rabbit serum were obtained from Sigma Chemical Company.
Restriction fragments and oligonucleotides. The 5′ region of the human β-globin gene (from −610 to +20), previously cloned in pSV2CAT, was cut into three fragments by sequential digestions with Hind III and Rsa I. The three fragments, electroeluted from agarose (Maniatis, T., Fritsch, E. F. & Sambrook, J. (1989) Molecular Cloning: A Laboratory Manual (Cold Spring Harbor Laboratory, Cold Spring Harbor, N.Y.), were 416 bp (−638/−223), 147 bp (−127/+20, containing the proximal promoter region), and 95 bp (the Rsa fragment, −222/−128, containing mainly distal promoter sequences). The three fragments were phenol/chloroform treated, dephosphorylated, and end-labelled with 32-P as described (Maniatis, T., Fritsch, E. F. & Sambrook, J. (1989) Molecular Cloning: A Laboratory Manual (Cold Spring Harbor Laboratory, Cold Spring Harbor, N.Y.); Kurien, B. T., Scofield, R. H., & Broyles, R. H. (1997) Anal Biochem 245, 123-126). […]

As to `NC(=O)NO` [Hydroxyurea], the “patients on whom the agent has no effect” value in the data set with acute sickle-cell crises is reported as 25%.
Turning to `CC1=CC(=O)CC(C)(C)C1(O)/C=C/C(C)=C\C(=O)O` (centres unmarked) [abscissic acid], in data set [1], the “ferritin-H expression in NT-2 cells” value is “activated ferritin-H expression”. In data set [2] (administered day 1 of phase II culture with rhEpo, HPLC, observed 23 days to 4 weeks after administration), the HbS-to-HbF hemoglobin switch entry is on record as “total switch”. Moreover, in data set [2] (immuno-HbF fluorescence), the “cellular distribution of HbF production” value was “pancellular”.
In the case of “mutant no. 4: double-stranded −164/−128 oligonucleotide mutated in the −153/−148 CAGTGC sequence, SEQ ID NO: 5 (AACTCCTAAGCAAAAAACAGAAGAGCCAAGGACAGGT; double-stranded competitor oligonucleotide, further chemistry not given here)”, in data set [3] (FIG. 4D), the “concentration required for 50% inhibition of binding of labeled probe, relative to wt sequence” value is 20 fold. Besides, the “excess of unlabeled oligonucleotide needed for significant competition with labeled wt sequence” value in data set [3] is listed as 1,000 fold excess.
In the case of “transferrin: human transferrin, another iron-binding protein, Sigma”, the “binding to −222/−128 distal promoter fragment” value in data set [4] is on record as “did not bind”.
In the case of “wt: double-stranded wildtype −164/−128 β-globin promoter oligonucleotide, SEQ ID NO: 1 (AACTCCTAAGCCAGTGCCAGAAGAGCCAAGGACAGGT; complementary strand not cited, chemistry not fully specified; listed as Homo sapiens)”, the “excess of unlabeled oligonucleotide needed for significant competition with labeled wt sequence” value in data set [3] stood at 50 fold excess.

Source of the values: US9089521B2, “Method for regulating production of hemoglobin beta chains” (priority 2001, dated 2015).
